{"source": "patent US20060014644A1", "about": "“Phenylsulfonyl ureas, process for their preparation and their use as herbicides and plant growth regulators” (Hoechst Schering AgrEvo GmbH, priority 1999, published 2006)", "key": {"[1]": {"test_system": "harmful plants such as Sinapis alba, Chrysanthemum segetum, Avena sativa, Stellaria media, Echinochloa crus-galli, Lolium multiflorum, Setaria spp., Abutilon …", "assay": "Pre-emergence effect on weeds (greenhouse pot test, visual scoring)", "assay_type": "in vivo, monocotyledonous and dicotyledonous weed plants", "settings": "application rate of 0.3 kg and less of active substance per hectar, scored visually after 3 to 4 weeks by comparison with untreated controls", "excerpt": "1. Pre-Emergence Effect on Weeds\nSeeds or rhizome pieces of monocotyledonous and dicotyledonous weed plants were placed in sandy loam soil in cardboard pots and covered with soil. The compounds according to the invention which were formulated in the form of wettable powders or emulsion concentrates were then applied to the surface of the soil cover in the form of aqueous suspensions or emulsions at an application rate of 600 to 800 l of water/ha (converted), in various dosages.\nAfter the treatment, the pots were placed in a greenhouse and kept under good growth conditions for the weeds. After the test plants had emerged, the damage to the plants or the negative effect on the emergence was scored visually after a test period of 3 to 4 weeks by comparison with untreated controls. As shown by the test results, compounds according to the invention have good herbicidal pre-emergence activity against a broad spectrum of weed grasses and broad-leafed weeds."}, "[2]": {"test_system": "harmful plants such as Sinapis alba, Echinochloa crus-galli, Lolium multiflorum, Chrysanthemum segetum, Setaria spp., Abutilon theophrasti, Amaranthus …", "assay": "Post-emergence effect on weeds (greenhouse pot test, visual scoring)", "assay_type": "in vivo, monocotyledonous and dicotyledonous weeds", "settings": "three-leaf stage, application rate of 0.3 kg and less of active substance per hectare, scored visually after about 3 to 4 weeks by comparison with untreated controls", "method": "2. Post-Emergence Effect on Weeds\nSeeds or rhizome pieces of monocotyledonous and dicotyledonous weeds were placed in sandy loam soil in plastic pots, covered with soil and grown in a greenhouse under good growth conditions. Three weeks after sowing, the test plants were treated at the three-leaf stage. The compounds according to the invention which were formulated as wettable powders or emulsion concentrates were sprayed, at various dosages, onto the green parts of the plants at an application rate of 600 to 800 l of water/ha (converted). After the test plants had remained in the greenhouse for about 3 to 4 weeks under ideal growth conditions, the effect of the preparations was scored visually by comparison with untreated controls. The agents according to the invention also have good herbicidal activity post-emergence against a broad spectrum of economically important Weed grasses and broad-loafed weeds."}}, "data": [{"compound": "COC(=O)c1c(N(C)C)cccc1S(=O)(=O)NC(=O)Nc1nc(OC)cc(OC)n1", "note": "[Example 1-401]", "values": [{"measurement": "herbicidal activity against harmful plants, pre-emergence", "setting": "[1]", "result": "very good herbicidal activity"}, {"measurement": "herbicidal activity against harmful plants, post-emergence", "setting": "[2]", "result": "very good herbicidal activity"}]}, {"compound": "CCN(CC)c1cccc(S(=O)(=O)NC(=O)Nc2nc(OC)cc(OC)n2)c1C(=O)OC", "note": "[Example 1-417]", "values": [{"measurement": "herbicidal activity against harmful plants, pre-emergence", "setting": "[1]", "result": "very good herbicidal activity"}, {"measurement": "herbicidal activity against harmful plants, post-emergence", "setting": "[2]", "result": "very good herbicidal activity"}]}, {"compound": "COC(=O)c1c(N(CC(C)C)CC(C)C)cccc1S(=O)(=O)NC(=O)Nc1nc(OC)cc(OC)n1", "note": "[Example 1-425]", "values": [{"measurement": "herbicidal activity against harmful plants, pre-emergence", "setting": "[1]", "result": "very good herbicidal activity"}, {"measurement": "herbicidal activity against harmful plants, post-emergence", "setting": "[2]", "result": "very good herbicidal activity"}]}, {"compound": "COC(=O)c1c(N(CC(C)C)CC(C)C)cccc1S(=O)(=O)[N-]C(=O)Nc1nc(OC)cc(OC)n1.[Na+]", "note": "[Example 1-426]", "values": [{"measurement": "herbicidal activity against harmful plants, pre-emergence", "setting": "[1]", "result": "very good herbicidal activity"}, {"measurement": "herbicidal activity against harmful plants, post-emergence", "setting": "[2]", "result": "very good herbicidal activity"}]}]}
